Source: PMC12676205, “New Se‐Compounds With Antileishmanial, Antitumor, and Carbonic Anhydrase Inhibitory Properties” (Archiv Der Pharmazie, 2025)
Like-named read-outs stand apart in the source and are kept apart here.

Columns and labels:
hCA I = biological target: T1, hCA I (Homo sapiens, UniProt P00915); assay: hCA I inhibition, stopped-flow CO2 hydration assay; assay type: biochemical; conditions: stopped flow technique, mean from three assays
T1 construct: made in house
Experimental: (§5) An Applied Photophysics stopped‐flow instrument was used to assay the CA‐catalyzed CO2 hydration activity [52]. […] The uncatalyzed rates were determined in the same manner and subtracted from the total observed rates. Stock solutions of the inhibitor (0.1 mM) were prepared in distilled–deionized water, and dilutions up to 0.01 nM were done thereafter with the assay buffer. Inhibitor and enzyme solutions were preincubated together for 15 min at room temperature before the assay, to allow for the formation of the E–I complex. The inhibition constants were obtained by Nonlinear least‐squares methods using PRISM 3 and the Cheng‐Prusoff equation as reported earlier and represent the mean from at least three different determinations. All CA isoforms were recombinant proteins obtained in‐house, as reported earlier [54, 55, 56].

hCA IX = biological target: T2, hCA IX (Homo sapiens, UniProt Q16790); assay: biochemical; conditions: stopped flow technique, mean from three assays
T2 construct: made in house
Experimental: as §5

hCA XII = biological target: T3, hCA XII (Homo sapiens, UniProt O43570); assay: hCA XII inhibition, stopped-flow CO2 hydration assay; assay type: biochemical; conditions: stopped flow technique, mean from three assays
T3 construct: made in house
T3 sequence (O43570 25-354): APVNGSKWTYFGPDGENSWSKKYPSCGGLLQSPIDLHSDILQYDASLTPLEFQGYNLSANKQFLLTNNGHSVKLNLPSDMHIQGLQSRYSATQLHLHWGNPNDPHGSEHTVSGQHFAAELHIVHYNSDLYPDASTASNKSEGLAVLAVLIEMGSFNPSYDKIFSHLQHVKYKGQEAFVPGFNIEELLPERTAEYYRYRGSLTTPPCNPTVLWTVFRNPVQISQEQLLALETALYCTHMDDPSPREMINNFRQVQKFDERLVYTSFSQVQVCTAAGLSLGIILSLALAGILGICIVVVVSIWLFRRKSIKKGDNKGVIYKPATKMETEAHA
Experimental: as §5

[1] = test system: NSCL (non‐small‐cell lung cancer) subpanel; assay: NCI-60 one-dose screen, NSCL subpanel; assay type: cell-based, human; conditions: 10 µM, 48 h
Experimental: (§1) To explore the potential antiproliferative properties of the newly synthesized derivatives, they were submitted to the National Cancer Institute's (NCI) Developmental Therapeutics Program (DTP) for screening at 10 μM in a panel of approximately 60 human cancer cell lines from different cancer types. The results are reported as the growth percentage (GP), which is the growth of the treated cells with each compound for 48 h compared to the untreated controls (Figure 2). […] The initial screening results are summarized in Figure 2, and the mean GP values of each subpanel are depicted in Figure 3. The full reports are compiled in the Supplementary Section.
(§2) All the reported selenoesters (1–6) were submitted to the DTP of NCI. First, they were screened at a single dose (10^−5 M) against a panel of 60 cancer cell lines derived from different tumor types following the methodology available (https://dtp.cancer.gov/discovery_development/nci-60/methodology.htm). As all the compounds satisfied the threshold inhibition criteria established, they were further assessed at five concentrations (0.01, 0.1, 1, 10, and 100 µM) against the same cell panel to obtain their corresponding dose–response curves and three antitumor parameters (GI50, TGI, and LC50) by regression. GraphPad Prism 7.0 Software was used to represent the corresponding graphs.

Colon subpanel [2] = assay: NCI-60 one-dose screen, colon subpanel; assay type: cell-based, human; conditions: 10 µM, 48 h
Experimental: as §1, §2

Melanoma subpanel [3] = assay: NCI-60 one-dose screen, melanoma subpanel; assay type: cell-based, human; conditions: 10 µM, 48 h
Experimental: as §1, §2

Renal subpanel = assay: NCI-60 one-dose screen, renal subpanel; assay type: cell-based, human; conditions: 10 µM, 48 h
Experimental: as §1, §2

OVCAR‐5 = assay: NCI-60 one-dose screen, OVCAR-5; assay type: cell-based, human; conditions: 10 µM, 48 h
Experimental: as §1, §2

[4] = test system: NCI‐60 human cancer cell lines; assay: NCI-60 five-dose assay, whole panel; assay type: cell-based; conditions: 48 h, bound for every subpanel
Experimental: (§3) All the compounds were selected for further testing since they fulfilled the set NCI one‐dose screening parameters for threshold inhibition. They were tested at five different concentrations (0.01, 0.1, 1, 10, and 100 μM) for 48 h against the same cell line panel and the dose–response curves along with three response parameters (50% growth inhibitory concentration [GI50], the 50% lethal concentration [LC50], and the total growth inhibition [TGI]) were calculated for every cancer cell line. The full reported data and corresponding graphs are compiled in Supporting Information S1. Average values of GI50, TGI, and LC50 values of all the reported selenoesters in all the subpanels are represented in Figure 4.
as §2

Colon subpanel [5] = assay: NCI-60 five-dose assay, colon subpanel; assay type: cell-based; conditions: Homo sapiens, 48 h; for GI50: read-out: Mean GI50 Colon; for CC50: read-out: Mean LC50 Colon
Experimental: as §3, §2

CNS subpanel = assay: NCI-60 five-dose assay, CNS subpanel; assay type: cell-based; conditions: Homo sapiens, 48 h; for GI50: read-out: Mean GI50 CNS; for LC50: read-out: Mean LC50 CNS
Experimental: as §3, §2

Melanoma subpanel [6] = assay: NCI-60 five-dose assay, melanoma subpanel; assay type: cell-based; conditions: Homo sapiens, 48 h; for GI50: read-out: Mean GI50 Melanoma; for LC50 (50% lethal concentration): read-out: Mean LC50 Melanoma
Experimental: as §3, §2

[7] = test system: L. infantum promastigotes; assay: Leishmanicidal activity against promastigotes (MTT), L. infantum; assay type: cell-based, Leishmania infantum
Experimental: (§4) The synthesized compounds were tested for their antileishmanial activity against promastigotes of L. major and L. infantum at four concentrations (1, 10, 50, and 100 µM) for 48 h using the 3‐(4,5‐dimethylthiazol‐2‐yl)‐2,5‐diphenyltetrazolium bromide (MTT) assay. In this evaluation, the activity was expressed in IC50 (concentration inhibiting the parasite growth by 50%). […] The CC50 was defined as the concentration of selenoesters that led to a reduction in the viability of the macrophages, such that only 50% of the cells survived when compared to the control group. This cell line, derived from the blood of a human with acute monocytic leukemia, was chosen as it has been widely reported that it resembles tissue macrophages to various extents as well as supports the infection by numerous Leishmania promastigotes. The selectivity indexes (SIs) were calculated as the ratio between toxicity on macrophages (THP‐1 cells)/antileishmanial activity. The data for standard control drugs (miltefosine and paromomycin) are included for comparison purposes.
The promastigotes of L. major (clone VI, MHOM/IL/80/Friendlin) and L. infantum (BCN‐150) were grown at 26°C under continuous shaking in M199 1× medium (Sigma, USA). This media was supplemented with 10% of heat‐inactivated fetal bovine serum (FBS) (Gibco, USA), 0.0005% (w/v) hemin, 0.1 mM adenine, 25 mM HEPES (pH 7.2), 0.0001% (w/v) biotin, and 100 UI/mL penicillin and […] streptomycin (Gibco, USA).
The antileishmanial activity of the reported selenoesters was determined using the MTT assay as previously described during the logarithmic growth phase of the tested promastigotes of L. major and L. infantum. Briefly, the Leishmania parasites were seeded into 96‐well flat‐bottom plates (3 × 10^5 parasites/100 µL) and treated with four different concentrations ranging between 1 and 100 µM of each selenoester at 26°C for 48 h. Afterwards, 20 µL of MTT (5 mg/mL in PBS) was added to each well and incubated for 4 h under the same conditions. Then, 80 µL/well of DMSO was added to dissolve the resultant formazan crystals. The absorbances were determined on a Multiskan EX photometric plate reader for microplates at 540 nm. Three independent experiments performed in triplicate were carried out for each compound, and OriginPro 8.5.1 Software was used to calculate the IC50 values by fitting the data to a dose–inhibition sigmoid curve.

[8] = THP-1 cytotoxicity (MTT, PMA-differentiated macrophages); assay type: cell-based, human; conditions: human, THP-1 cells differentiated into macrophages with PMA, mean ± SD
Experimental: as §4
THP‐1 cells were seeded at a concentration of 8 × 10^4 cells per well in 96‐well plates and incubated with phorbol 12‐myristate 13‐acetate (PMA) (50 ng/mL) for 72 h (37°C and 5% CO2) to differentiate them into macrophages. After that, the culture medium was removed and the cells were treated with the reported selenoesters at different increasing concentrations ranging from 1 to 200 µM for 48 h at 37°C and 5% of CO2. Macrophages treated with DMSO (1%) were used as controls, and the compounds were dissolved in DMSO at a stock concentration of 10^−2 M. Afterward, the MTT assay was performed. Data were obtained from three independent experiments performed in triplicate. The absorbance was measured at 550 nm using a MultiskanEX photometric plate reader for microplates. The CC50 values were calculated using OriginPro 8.5.1. software by nonlinear curve fitting. SIs were calculated as the ratio of the CC50 values determined for the macrophages and the IC50 values obtained in each Leishmania promastigote. GraphPad Prism 7.0 Software was used to obtain the corresponding graphs.

[9] = Leishmania infantum, 48 h, mean ± SD, read-out: L. infantum IC50
[10] = 48 h, mean ± SD, read-out: L. infantum IC50
[11] = read-out: L. infantum IC50, 48 h, mean ± SD

T1 sequence (P00915 whole entry): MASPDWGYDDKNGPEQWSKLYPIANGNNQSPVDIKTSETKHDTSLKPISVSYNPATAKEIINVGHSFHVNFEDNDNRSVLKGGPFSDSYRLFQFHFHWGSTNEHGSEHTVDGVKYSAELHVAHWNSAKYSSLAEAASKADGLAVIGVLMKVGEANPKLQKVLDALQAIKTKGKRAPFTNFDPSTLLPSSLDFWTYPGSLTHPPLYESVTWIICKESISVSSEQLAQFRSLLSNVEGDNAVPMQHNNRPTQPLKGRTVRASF

Row | Compound | Ki (hCA I) | Ki (hCA IX) | Ki (hCA XII) | average growth cell value, NSCL [1] | average growth cell value, Colon (Colon subpanel [2]) | average growth cell value, Melanoma (Melanoma subpanel [3]) | average growth cell value, Renal (Renal subpanel) | behaviour in OVCAR‐5 (OVCAR‐5) | mean TGI values against all the subpanels tested [4] | GI50 (Colon subpanel [5]) | CC50 (Colon subpanel [5]) | GI50 (CNS subpanel) | LC50 (CNS subpanel) | GI50 (Melanoma subpanel [6]) | LC50 (50% lethal concentration) (Melanoma subpanel [6]) | IC50 [7, 9] | GI50 ([4]; Homo sapiens, read-out: mean GI50 values in all the cancer subpanels tested) | IC50 [7, 10] | IC50 [7, 11] | CC50 at 48 h [8]
1 | O=C(C[Se]C(=O)c1ccccc1)Nc1ccc([N+](=O)[O-])c(C(F)(F)F)c1 [Compound 2, Se‐(2‐((4‐nitro‐3‐(trifluoromethyl)phenyl)amino)‐2‐oxoethyl)benzoselenoate] | > 100 µM | 76.3 µM | 91.5 µM | -96.34% | -81.88% | -94.64% | -96.22% | cytotoxic activity | below 5 µM | 2.11 µM | 7.68 µM | 1.17 µM | 5.17 µM | 1.24 µM | 5.37 µM | 29.4 ± 2.1 µM | – | – | – | –
2 | O=C(C[Se]C(=O)c1ccco1)Nc1cccc(OC(F)(F)F)c1 [Compound 6, Se‐(2‐oxo‐2‐((3‐(trifluoromethoxy)phenyl)amino)ethyl)furan‐2‐carboselenoate] | > 100 µM | 35.9 µM | 9.6 µM | -12.41% | 31.61% | -18.35% | -17.86% | cytostatic behavior | – | 7.93 µM | 67.3 µM | 3.08 µM | – | 4.95 µM | – | 6 to 10 µM | < 10 µM | 5.99 ± 2.33 µM | < 10 µM | 38.7 ± 6.71 µM
3 | O=C(C[Se]C(=O)c1ccco1)Nc1ccc([N+](=O)[O-])c(C(F)(F)F)c1 [Compound 5, Se‐(2‐((4‐nitro‐3‐(trifluoromethyl)phenyl)amino)‐2‐oxoethyl)furan‐2‐carboselenoate] | > 100 µM | 21.1 µM | 72.6 µM | -42.46% | -17.82% | -56.28% | -39.51% | cytotoxic activity | – | 2.58 µM | 46.5 µM | 2.04 µM | – | 1.7 µM | – | 32.9 ± 8.25 µM | – | – | – | 108 ± 5.53 µM
4 | N#Cc1ccc(NC(=O)C[Se]C(=O)c2ccccc2)cc1C(F)(F)F [Compound 1, Se‐(2‐((4‐cyano‐3‐(trifluoromethyl)phenyl)amino)‐2‐oxoethyl)benzoselenoate] | > 100 µM | 57.2 µM | 51.1 µM | -96.68% | -95.24% | -94.28% | -95.41% | cytotoxic activity | below 5 µM | 1.98 µM | 6.79 µM | 1.37 µM | 5.64 µM | 1.36 µM | 5.49 µM | 29.2 ± 2.65 µM | – | – | – | –
5 | O=C(C[Se]C(=O)c1ccccc1)Nc1cccc(OC(F)(F)F)c1 [Compound 3, Se‐(2‐oxo‐2‐((3‐(trifluoromethoxy)phenyl)amino)ethyl)benzoselenoate] | > 100 µM | 80.2 µM | 17.4 µM | -57.44% | 25.15% | -50.62% | -61.17% | cytostatic behavior | – | 8.52 µM | 43.9 µM | 2.07 µM | 9 µM | 2.33 µM | 13.6 µM | 6 to 10 µM | – | 6.59 ± 3.73 µM | < 10 µM | ≥ 200 µM
